Measured values published in PubChem BioAssay (NCI).
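How tested: cells in 96-well plates exposed to compound for 48 hours at five concentrations. Abbreviation: GI50, concentration required for 50% inhibition of growth. TGI: total growth inhibition.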

How the values were obtained:
Assay in all cases: NCI tumour cell line growth inhibition, 48 h
NCI-H23 lung = test system: NCI-H23 lung
NCI-H460 lung = test system: NCI-H460 lung
NCI-H522 lung = test system: NCI-H522 lung
NCI/ADR-RES ovarian = test system: NCI/ADR-RES ovarian
OVCAR-4 ovarian = test system: OVCAR-4 ovarian
OVCAR-5 ovarian = test system: OVCAR-5 ovarian
OVCAR-8 ovarian = test system: OVCAR-8 ovarian
PC-3 prostate = test system: PC-3 prostate
RPMI-8226 leukemia = test system: RPMI-8226 leukemia
RXF 393 renal = test system: RXF 393 renal
SF-268 CNS = test system: SF-268 CNS
SF-295 CNS = test system: SF-295 CNS
SF-539 CNS = test system: SF-539 CNS
SK-MEL-2 melanoma = test system: SK-MEL-2 melanoma
SK-MEL-28 melanoma = test system: SK-MEL-28 melanoma
SK-MEL-5 melanoma = test system: SK-MEL-5 melanoma
SK-OV-3 ovarian = test system: SK-OV-3 ovarian
SN12C renal = test system: SN12C renal
SNB-19 CNS = test system: SNB-19 CNS
SNB-75 CNS = test system: SNB-75 CNS
SR leukemia = test system: SR leukemia
SW-620 colon = test system: SW-620 colon
T-47D breast = test system: T-47D breast
TK-10 renal = test system: TK-10 renal
U251 CNS = test system: U251 CNS
UACC-257 melanoma = test system: UACC-257 melanoma
UACC-62 melanoma = test system: UACC-62 melanoma
UO-31 renal = test system: UO-31 renal

Structure (SMILES): O=C(NCc1ncc[nH]1)c1ccc(-c2nc3ccc4[nH]ncc4c3c3c2CCCC3)cc1
- GI50 (NCI-H23 lung): 1.82 µM
- TGI (NCI-H23 lung): 8.21 µM
- GI50 (NCI-H460 lung): 1.94 µM
- TGI (NCI-H460 lung): 7.83 µM
- GI50 (NCI-H522 lung): 0.869 µM
- TGI (NCI-H522 lung): 2.85 µM
- GI50 (NCI/ADR-RES ovarian): > 50 µM
- TGI (NCI/ADR-RES ovarian): > 50 µM
- GI50 (OVCAR-4 ovarian): 3.19 µM
- TGI (OVCAR-4 ovarian): 19.7 µM
- GI50 (OVCAR-5 ovarian): 9.18 µM
- TGI (OVCAR-5 ovarian): > 50 µM
- GI50 (OVCAR-8 ovarian): 1.81 µM
- TGI (OVCAR-8 ovarian): 17.3 µM
- GI50 (PC-3 prostate): 1.81 µM
- TGI (PC-3 prostate): 32 µM
- GI50 (RPMI-8226 leukemia): 6.15 µM
- TGI (RPMI-8226 leukemia): 23.4 µM
- GI50 (RXF 393 renal): 0.603 µM
- TGI (RXF 393 renal): 2.76 µM
- GI50 (SF-268 CNS): 1.33 µM
- TGI (SF-268 CNS): 8.88 µM
- GI50 (SF-295 CNS): 3 µM
- TGI (SF-295 CNS): 14.9 µM
- GI50 (SF-539 CNS): 1.21 µM
- TGI (SF-539 CNS): 5.85 µM
- GI50 (SK-MEL-2 melanoma): 1.1 µM
- TGI (SK-MEL-2 melanoma): 2.87 µM
- GI50 (SK-MEL-28 melanoma): 1.19 µM
- TGI (SK-MEL-28 melanoma): 4.6 µM
- GI50 (SK-MEL-5 melanoma): 1.93 µM
- TGI (SK-MEL-5 melanoma): 7.51 µM
- GI50 (SK-OV-3 ovarian): 0.707 µM
- TGI (SK-OV-3 ovarian): 3.3 µM
- GI50 (SN12C renal): 1.69 µM
- TGI (SN12C renal): 10.6 µM
- GI50 (SNB-19 CNS): 1.85 µM
- TGI (SNB-19 CNS): 38.1 µM
- GI50 (SNB-75 CNS): 1.61 µM
- TGI (SNB-75 CNS): 5.2 µM
- GI50 (SR leukemia): 0.549 µM
- TGI (SR leukemia): 27.7 µM
- GI50 (SW-620 colon): 1.36 µM
- TGI (SW-620 colon): > 50 µM
- GI50 (T-47D breast): 1.18 µM
- TGI (T-47D breast): 6.13 µM
- GI50 (TK-10 renal): 1.66 µM
- TGI (TK-10 renal): > 50 µM
- GI50 (U251 CNS): 1.68 µM
- TGI (U251 CNS): 11.6 µM
- GI50 (UACC-257 melanoma): 3.61 µM
- TGI (UACC-257 melanoma): 18.8 µM
- GI50 (UACC-62 melanoma): 1.38 µM
- TGI (UACC-62 melanoma): 6.47 µM
- GI50 (UO-31 renal): 7.57 µM
- TGI (UO-31 renal): 22.6 µM
